For the assay, the target named is Mast/stem cell growth factor receptor Kit (Homo sapiens, UniProt P10721). As to the kind of experiment: Magnesium chloride (MgCl2), Manganese(II) chloride (MnCl2), Bovine serum albumin (BSA) and dimethylsulfoxide (DMSO) were purchased from Sigma-Aldrich.

We go through one compound from ChEMBL document CHEMBL5727746, “Benzothiazol compounds and methods using the same for treating neurodegenerative disorders” (2020).

Mast/stem cell growth factor receptor Kit, sequence (P10721 whole entry): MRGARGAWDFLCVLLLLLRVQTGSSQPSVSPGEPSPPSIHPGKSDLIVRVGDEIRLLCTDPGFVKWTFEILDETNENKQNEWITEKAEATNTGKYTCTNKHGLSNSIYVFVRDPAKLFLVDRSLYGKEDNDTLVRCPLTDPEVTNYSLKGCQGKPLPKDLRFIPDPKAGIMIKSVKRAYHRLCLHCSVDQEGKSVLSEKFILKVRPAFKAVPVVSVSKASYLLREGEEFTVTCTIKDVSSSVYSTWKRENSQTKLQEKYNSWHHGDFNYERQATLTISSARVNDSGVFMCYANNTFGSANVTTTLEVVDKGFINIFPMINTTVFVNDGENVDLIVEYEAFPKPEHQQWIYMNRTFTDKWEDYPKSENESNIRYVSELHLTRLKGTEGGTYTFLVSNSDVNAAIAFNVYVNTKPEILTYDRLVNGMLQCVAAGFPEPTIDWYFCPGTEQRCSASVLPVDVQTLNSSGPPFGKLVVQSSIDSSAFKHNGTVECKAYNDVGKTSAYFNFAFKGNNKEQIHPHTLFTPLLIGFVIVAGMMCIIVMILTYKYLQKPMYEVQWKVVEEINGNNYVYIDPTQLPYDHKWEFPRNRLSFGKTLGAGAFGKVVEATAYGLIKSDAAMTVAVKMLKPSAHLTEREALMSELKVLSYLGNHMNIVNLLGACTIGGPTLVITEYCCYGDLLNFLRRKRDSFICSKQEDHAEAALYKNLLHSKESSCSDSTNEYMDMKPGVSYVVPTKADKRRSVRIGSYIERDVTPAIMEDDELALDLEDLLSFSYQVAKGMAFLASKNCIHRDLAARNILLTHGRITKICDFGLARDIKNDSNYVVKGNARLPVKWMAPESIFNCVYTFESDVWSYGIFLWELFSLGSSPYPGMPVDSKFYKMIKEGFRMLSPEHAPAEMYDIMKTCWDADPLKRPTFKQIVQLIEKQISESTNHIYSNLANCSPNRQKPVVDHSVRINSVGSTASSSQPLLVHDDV

The IC50 is the concentration that inhibits the measured activity by half. Read a low IC50 as greater potency in that assay. In turn, `Cc1ccc2c(c1-c1ccc3nc(NC(=O)[C@@H]4C[C@@H]4F)sc3c1)CCN2` registered a concentration for half-maximal inhibition (IC50) of more than 10 µM.
